The results in this text go back to PMC11831592, “Repurposing Linezolid in Conjunction with Histone Deacetylase Inhibitor Access in the Realm of Glioblastoma Therapies” (Journal of Medicinal Chemistry, 2025).

One data set deals with T1, HDAC8 (Homo sapiens, UniProt Q9BY41).
T1 construct: purchased Reaction Biology Corporation, Malvern, PA (contract assay service)
T1 sequence (Q9BY41 1-377): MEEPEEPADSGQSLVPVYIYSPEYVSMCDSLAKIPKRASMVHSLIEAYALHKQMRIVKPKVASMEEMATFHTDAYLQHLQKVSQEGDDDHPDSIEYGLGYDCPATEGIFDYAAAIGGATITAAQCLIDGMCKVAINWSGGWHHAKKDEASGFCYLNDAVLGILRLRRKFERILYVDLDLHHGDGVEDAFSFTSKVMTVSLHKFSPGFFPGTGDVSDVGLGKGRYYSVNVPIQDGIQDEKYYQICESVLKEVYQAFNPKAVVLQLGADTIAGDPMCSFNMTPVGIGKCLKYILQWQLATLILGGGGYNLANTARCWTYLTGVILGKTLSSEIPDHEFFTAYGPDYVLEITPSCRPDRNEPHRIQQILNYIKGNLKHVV
Put plainly: HDAC enzyme inhibition assay, HDAC8. The data set is classed as biochemical. The note with it: 10-dose, 3-fold serial dilution starting at 10 μM. The method, then:
(§1) Enzyme inhibition assays were performed by the Reaction Biology Corporation, Malvern, PA (http://www.reactionbiology.com).

A further data set has as its target T2, HDAC6 (Homo sapiens, UniProt Q9UBN7).
T2 construct: purchased Reaction Biology Corporation, Malvern, PA (contract assay service)
T2 sequence (Q9UBN7 1-1215): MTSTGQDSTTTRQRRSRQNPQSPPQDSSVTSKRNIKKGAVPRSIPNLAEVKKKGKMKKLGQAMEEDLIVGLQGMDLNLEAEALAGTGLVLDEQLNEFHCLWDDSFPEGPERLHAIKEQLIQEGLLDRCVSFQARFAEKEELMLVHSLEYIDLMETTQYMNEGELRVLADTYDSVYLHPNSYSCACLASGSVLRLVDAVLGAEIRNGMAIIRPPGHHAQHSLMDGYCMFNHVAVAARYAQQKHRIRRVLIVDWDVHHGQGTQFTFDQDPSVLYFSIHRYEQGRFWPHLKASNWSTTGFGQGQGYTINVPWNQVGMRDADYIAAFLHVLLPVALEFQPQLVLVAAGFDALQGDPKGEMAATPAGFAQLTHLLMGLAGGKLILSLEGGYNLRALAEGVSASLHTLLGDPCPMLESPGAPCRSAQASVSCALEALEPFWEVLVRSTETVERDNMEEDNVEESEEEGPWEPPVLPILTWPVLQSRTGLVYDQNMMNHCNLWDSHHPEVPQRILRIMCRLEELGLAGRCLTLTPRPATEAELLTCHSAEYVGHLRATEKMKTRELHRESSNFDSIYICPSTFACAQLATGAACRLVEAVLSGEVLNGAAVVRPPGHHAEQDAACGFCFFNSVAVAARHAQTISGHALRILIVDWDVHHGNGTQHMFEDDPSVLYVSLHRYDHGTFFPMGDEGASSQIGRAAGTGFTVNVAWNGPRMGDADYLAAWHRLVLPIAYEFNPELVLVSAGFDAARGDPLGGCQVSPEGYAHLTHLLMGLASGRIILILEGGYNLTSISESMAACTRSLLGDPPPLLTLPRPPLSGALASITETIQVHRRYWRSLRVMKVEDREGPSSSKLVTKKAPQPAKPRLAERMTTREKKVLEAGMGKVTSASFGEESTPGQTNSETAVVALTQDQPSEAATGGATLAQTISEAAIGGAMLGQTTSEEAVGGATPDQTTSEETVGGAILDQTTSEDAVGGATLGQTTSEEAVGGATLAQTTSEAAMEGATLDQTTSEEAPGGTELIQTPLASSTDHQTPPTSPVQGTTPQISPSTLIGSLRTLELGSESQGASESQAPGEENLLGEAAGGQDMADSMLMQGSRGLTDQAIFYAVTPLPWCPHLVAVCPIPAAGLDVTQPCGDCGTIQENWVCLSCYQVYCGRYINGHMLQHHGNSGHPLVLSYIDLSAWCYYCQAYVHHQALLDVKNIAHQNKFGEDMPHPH
Put plainly: HDAC enzyme inhibition assay, HDAC6. The data set is classed as biochemical. The note with it: 10-dose, 3-fold serial dilution starting at 10 μM. How it is done:
as §1

Data set [1] deals with phospho-ATM, CtIP, RPA32, and RAD51 in PT#3-R GBM cells. Put plainly: Western blot of DNA repair proteins. The format is cell-based, human. As to conditions: 72 h. How it is done:
The experimental procedure was performed as described in our previous study.[41] On the day prior to the experiment, […] cells were seeded into each well of a 6-well plate. The following day, the cells were washed twice with PBS and treated with 10 μM compound 1. […] The antibody models and dilution ratios used are detailed in Table S1. Protein image collection and quantification were done by the ChemiDoc Touch Imaging System (Cat. No. 12676029, Bio-Rad Laboratories, Inc., CA, USA).

A short description of data set [2]: Pharmacokinetic study in Sprague-Dawley rats. The data set is classed as in vivo. The note with it: male, plasma, rat, 10 mg/kg intravenous. The method, then: The pharmacokinetic study protocol of compound 1 was approved by the IACUC of TMU (LAC-2022-0452), in compliance with National Research Council’s Guide for the Care and Use of Laboratory Animal. 8 Week-old male Sprague–Dawley rats were provided by BioLASCO (Taipei, Taiwan). Each rat (n = 3) was intravenously administered with a single dosage of 10 mg/kg A089 through the jugular vein. Blood samples were collected from the jugular vein at predetermined time points: 0.03, 0.08, 0.25, 0.5, 1, 2, 4, 6, 8, 12, and 24 h postadministration. The blood samples were centrifuged at 4 °C to obtain the plasma samples. For protein precipitation, an aliquot of acetonitrile was added to the plasma, followed by centrifugation and filtration using a 0.22 μm filter. The filtrate was then analyzed by ultraperformance liquid chromatography–tandem mass spectrometry (UPLC–MS/MS, TQ-XS, Waters Corp., Manchester, UK). Pharmacokinetic parameters were calculated by using a noncompartmental analysis with Phoenix WinNonlin software (Certara, Princeton, NJ, USA).

Data set [3] relates to DNA HR repair in U87MG cells. As to the kind of experiment: Homologous recombination repair assay. The format is cell-based, human. The note with it: increasing drug concentrations. How it is done:
For the DNA, HR repair assay continued to use our previous study.[30] U87MG cells were cotransfected at a 2:1 ratio using the […] reporter and DsRed-Monomer plasmids. Cells were harvested 2 days after transfection and subjected to flow cytometry analysis by a Guava EasyCyte System. Only DsRed-positive cells were analyzed for HR and NHEJ efficiencies to circumvent possible differences in transfection efficiencies. Data were analyzed to reveal the percentage of GFP-positive cells relative to those of DsRed-positive cells. Data were set to 1% of the background level of GFP-positive cells in every internal control.

As a reminder, the IC50 is the concentration that gives 50% inhibition. By AUC(0-inf) is commonly meant total exposure, with the tail of the curve extrapolated. Broadly, the AUC(0-t) is the area under the concentration-time curve up to a stated or last time point. The term MRT inf denotes a mean duration of stay, worked out from the concentration-time curve. Broadly, the Vd is a proportionality between amount in the body and measured concentration, not a real space. As a reminder, the clearance is the volume of plasma or blood freed of the substance per unit of time. As a reminder, the half-life is how long it takes for the measured level to halve.

The compound `O=C(/C=C/c1ccc(CNC[C@H]2CN(c3ccc(N4CCOCC4)c(F)c3)C(=O)O2)cc1)NO` [compound 1, (S,E)-3-(4-((((3-(3-Fluoro-4-morpholinophenyl)-2-oxooxazolidin-5-yl)methyl)ami-no)methyl)phenyl)-N-hydroxyacrylamide] showed an IC50 at HDAC8 of 447 nM. Moreover, it took 106 nM to reach half-maximal inhibition against HDAC6 (IC50). Besides, in data set [1], the “CtIP, RPA32 and RAD51 protein expression” value is “significant suppression”; the “phosphorylation of ATM” value is listed as “significant increase in the phosphorylation”. In data set [2], the AUC(0-inf) at 24 h was 2280 ± 760 ng·h/mL, the AUC(0-t) at 24 h was found to be 2010 ± 530 ng·h/mL, the C0 at 24 h was 12300 ± 8130 ng/mL and the MRT inf at 24 h is 7.91 ± 3.11 h. Also, in data set [2], the Vd at 24 h came out at 76.2 ± 12.3 L/kg, the clearance at 24 h was 78 mL/min/kg and the half-life at 24 h was 12 ± 4.42 h. For the same compound, in data set [3], the “DNA HR repair capability” value is “substantial decrease in DNA HR repair capability”.
